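Cultured in 96-well plates, cells were exposed to test compound for 48 hours across five concentrations. TGI denotes the concentration required for complete inhibition of growth.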
Assays:
Assay in all cases: NCI tumour cell line growth inhibition, 48 h
[1] = tested on: SW-620 colon
[2] = tested on: OVCAR-8 ovarian
[3] = tested on: SK-MEL-5 melanoma
[4] = tested on: A549 NSCLC
[5] = tested on: KM12 colon
[6] = tested on: SK-OV-3 ovarian
[7] = tested on: MALME-3M melanoma
[8] = tested on: 786-0 renal
[9] = tested on: SF-539 CNS
[10] = tested on: RPMI-8226 leukemia
[11] = tested on: M14 melanoma
[12] = tested on: SF-268 CNS
[13] = tested on: SN12C renal
[14] = tested on: KM20L2 colon
[15] = tested on: NCI-H522 lung
[16] = tested on: HT29 colon
[17] = tested on: NCI-H23 lung
[18] = tested on: MCF7 breast
[19] = tested on: MDA-N
[20] = tested on: PC-3 prostate

Row | Compound | TGI [1] | TGI [2] | TGI [3] | TGI [4] | TGI [5] | TGI [6] | TGI [7] | TGI [8] | TGI [9] | TGI [10] | TGI [11] | TGI [12] | TGI [13] | TGI [14] | TGI [15] | TGI [16] | TGI [17] | TGI [18] | TGI [19] | TGI [20]
1 | CCOc1ccc(/C(Cl)=C(\C=O)c2ccc(OC)c(OC)c2)cc1OCC | > 100 µM | > 100 µM | 64.9 µM | > 100 µM | > 100 µM | > 100 µM | > 100 µM | > 100 µM | > 100 µM | > 100 µM | > 100 µM | > 100 µM | > 100 µM | > 100 µM | > 100 µM | > 100 µM | > 100 µM | – | – | –
2 | C=CCNC(=O)N(CCCC(NC(C)=O)C(=O)NCc1ccccc1)Cc1ccccc1 (configuration not stated) | > 100 µM | > 100 µM | > 100 µM | > 100 µM | > 100 µM | > 100 µM | > 100 µM | > 100 µM | > 100 µM | > 100 µM | > 100 µM | > 100 µM | > 100 µM | > 100 µM | > 100 µM | > 100 µM | > 100 µM | – | – | –
3 | CC1CN(c2ccc(Cl)cc2)CC(C)OC(=O)O1 (configuration not stated) | > 100 µM | > 100 µM | > 100 µM | > 100 µM | > 100 µM | > 100 µM | > 100 µM | > 100 µM | > 100 µM | > 100 µM | > 100 µM | > 100 µM | > 100 µM | > 100 µM | > 100 µM | > 100 µM | > 100 µM | – | – | –
4 | COc1cc([C@@H]2c3cc4c(cc3[C@@H](OC(=O)c3ccc(N)cc3)C3COC(=O)[C@@H]32)OCO4)cc(OC)c1O (some centres not stated) | > 95 µM | 78.5 µM | 16.7 µM | 28.1 µM | 44.7 µM | 20.7 µM | 63.5 µM | 59 µM | 7.99 µM | 58 µM | > 95 µM | > 95 µM | 40.1 µM | 3.57 µM | 5.35 µM | 21.2 µM | 14.4 µM | – | – | –
5 | CN1c2ccccc2N(C(=O)c2ccc(Cl)cc2)C(CC(=O)O)c2cccn21 (configuration not stated) | > 100 µM | > 100 µM | > 100 µM | > 100 µM | > 100 µM | > 100 µM | > 100 µM | > 100 µM | > 100 µM | > 100 µM | > 100 µM | > 100 µM | > 100 µM | > 100 µM | > 100 µM | > 100 µM | > 100 µM | – | – | –
6 | CN(C)C(=S)/N=c1\ssc(=S)n1Cc1ccccc1 | > 46.4 µM | 17.7 µM | 18.3 µM | 56 µM | > 100 µM | 5.27 µM | 30.7 µM | 15.9 µM | 1.49 µM | 31.6 µM | 13 µM | > 63.1 µM | > 63.1 µM | 0.388 µM | 0.617 µM | 11.7 µM | 24.8 µM | > 46.4 µM | 1.21 µM | 35.5 µM
7 | COC(=O)/C(=N\NC(=O)C[N+](C)(C)C)C(C(=O)OC)C(=O)C(=O)Nc1ccccc1C(N)=O (configuration not stated) | > 100 µM | – | > 100 µM | > 100 µM | > 100 µM | > 100 µM | > 100 µM | > 100 µM | > 100 µM | > 100 µM | > 100 µM | > 100 µM | > 100 µM | > 100 µM | > 100 µM | > 100 µM | > 100 µM | – | – | –
8 | COc1ccc(N=Cc2ccc(N(CCC#N)S(=O)(=O)c3ccccc3)cc2)cc1 | > 100 µM | > 100 µM | > 100 µM | > 100 µM | > 100 µM | > 100 µM | > 100 µM | > 100 µM | > 100 µM | > 100 µM | > 100 µM | > 100 µM | > 100 µM | > 100 µM | > 100 µM | > 100 µM | > 100 µM | – | – | –
9 | Cc1ccc([N+](=O)[O-])cc1NC(=O)/C(=N/NC(=S)NN)C1SC(=S)NC1=O (configuration not stated) | > 100 µM | > 100 µM | > 100 µM | > 100 µM | > 100 µM | > 100 µM | > 100 µM | > 100 µM | > 100 µM | > 100 µM | > 100 µM | > 100 µM | > 100 µM | > 100 µM | > 100 µM | > 100 µM | > 100 µM | – | – | –
10 | Nc1ccc2c(SCc3ccc([N+](=O)[O-])cc3)c3ccccc3nc2c1 | 13.8 µM | 26.7 µM | 28.4 µM | 48.9 µM | 27 µM | 42.7 µM | 26.8 µM | 20.1 µM | 30.8 µM | 14.2 µM | 24.1 µM | 30.8 µM | 34 µM | 31.6 µM | 15.1 µM | 32.6 µM | 32.8 µM | 27.6 µM | 31.1 µM | 29.7 µM
11 | CCC12CCCN(Cc3ccccc3)C1c1c(n(C)c3ccccc13)C(C(=O)OC)C2 (configuration not stated) | > 239 µM | > 239 µM | 97.1 µM | > 239 µM | > 239 µM | > 239 µM | > 239 µM | > 239 µM | > 239 µM | > 239 µM | – | > 239 µM | > 239 µM | > 239 µM | 127 µM | > 239 µM | > 239 µM | – | – | –
12 | COC(=O)C(C#CCCCCC#CC(NC(=O)OCc1ccccc1)(C(=O)OC)C(F)(F)F)(NC(=O)OCc1ccccc1)C(F)(F)F (configuration not stated) | > 100 µM | > 100 µM | > 100 µM | > 100 µM | > 100 µM | > 100 µM | > 100 µM | > 100 µM | > 100 µM | > 100 µM | > 100 µM | > 100 µM | > 100 µM | > 100 µM | > 100 µM | > 100 µM | > 100 µM | – | – | –
13 | CN(C)C(=S)/N=c1\ssc(=S)n1Cc1cccnc1 | > 53.2 µM | > 100 µM | 37.8 µM | > 100 µM | 36.2 µM | > 81.1 µM | > 100 µM | > 100 µM | > 100 µM | > 100 µM | 59.2 µM | > 100 µM | > 100 µM | 4.27 µM | 9.61 µM | > 49.5 µM | > 69.6 µM | > 100 µM | – | > 100 µM

Source: PubChem BioAssay (NCI)
